Test results: publication PMC3269340, “Pharmacokinetics of memantine in rats and mice” (PLoS Currents, 2012)
Where two headings read alike, the source gives them in different places.

Experiment: Pharmacokinetics in rats after single iv, po or sc dose (plasma and brain)
Type: in vivo, Sprague-Dawley rats
Settings: for half-life / AUC(0-inf) / Cmax: plasma
Description: Sprague Dawley (SD) rats (138 adult males), and C57Bl/6 mice (140 adult males), were obtained (Hilltop Laboratories, Scottsdale, PA); 123 per species were used in the study and the remainder provided blank matrix. Animals were individually identified by tail markings and were acclimated to the study environment for 16-21 days prior to dose administration. Animals were individually housed in suspended wire caging, and were kept on a 12h/12h light/dark cycle except when interrupted for study procedures. Average room temperature was regulated in the range 18 to 29°C, average relative humidity of 30-70%, and an average daily airflow >10 fresh air changes/h. Animals were fed LabDiet^Ò Certified Rodent Diet 5002 Meal food ad libitum, except during fasting prior to dose administration, and had access to water ad libitum.
[…] […] The concentration of memantine for the same dose level administered to mice was 0.2 mg eq./mL, and the dose volume was 5 mL/kg. The concentration of memantine in the 10mg eq./kg po and sc solutions was 5 mg eq./mL and the dose volume was 2 mL/kg for both rats and mice.
Details of the dose administration, body weights, clinical observations, plasma and brain sample collection and preparation are not shown in this report but are available upon request. Blood (for preparation of plasma) and brain samples were collected at 0.08, 0.25, 0.5, 1, 2, 4, 8, and 24h post-dose.
Since all time points were terminal, mean memantine concentrations per time point were used to calculate the composite PK parameters by non-compartmental analysis using WinNonlin program, version 5.2 (Pharsight Corp., Mountain View, California). A model was selected based on the vascular (iv bolus) or extravascular (po or sc) routes of administration. For the iv route, plasma concentration at time zero was back extrapolated from the first two observed post dose plasma concentrations. For the po and sc routes, concentration at time zero was assumed to be zero. Plasma and tissue concentrations below the limit of quantitation were treated as absent samples for the purpose of calculating the mean plasma concentration values or for calculating PK parameters.
The area under the plasma concentration versus time curve (AUC) was calculated using the linear trapezoidal method (linear interpolation). When appropriate, the terminal elimination phase of the PK profile was estimated based on the best fit (r^2) using at least the last three observed concentrations. PK parameters describing the systemic exposure of memantine in plasma and brain were estimated from observed (rather than predicted) plasma/brain concentrations, the dosing regimen, the AUC, and the terminal elimination phase rate constant (kel) for each group. The portion of the AUC from the last measurable concentration to infinity was estimated from the equation Ct/kel, where Ct represents the last measurable concentration. The extrapolated portion of the AUC was used for the determination of AUC0-∞. The percent bioavailability (%F) was calculated by dividing the dose normalized extravascular plasma AUC0-∞ by the dose normalized iv plasma AUC0-∞ times 100. The bioavailability calculations assumed concentrations were in the linear range.
Concentrations of memantine in rat and mouse plasma and brain were determined using an LC-MS/MS assay developed at ABC Laboratories.

[1] = rat brain, po dose increase from 1.22 to 10 mg/kg
[2] = rat plasma, po dose increase from 1.22 to 10 mg/kg

Compound: CC12CC3CC(C)(C1)CC(N)(C3)C2 [memantine]
- half-life (male, Sprague-Dawley, rat, iv, 1 mg/kg, rat, printed under 1 mg/kg (iv), cross-species summary, read-out: t 1/2 (converted)): 4 h
- AUC(0-inf) (male, Sprague-Dawley, rat, iv, 1.22 mg/kg, rat plasma, IV 1.22 mg eq./kg, read-out: AUC(0-∞)): 1.64 µM·h
- half-life (male, Sprague-Dawley, rat, iv, 1.22 mg/kg, rat plasma, IV 1.22 mg eq./kg, read-out: Half-life (t½) (converted)): 1.9 h
- AUC(0-inf) (male, Sprague-Dawley, rat, po, 1 mg/kg, rat, dose 1 mg/kg, single dose in solution (oral values of Table 1), read-out: AUC inf): 0.6 µM·h
- Cmax (male, Sprague-Dawley, rat, po, 1 mg/kg, rat, dose 1 mg/kg, single dose in solution, read-out: C max): 100 nM
- AUC(0-inf) (male, Sprague-Dawley, rat, po, 1.22 mg/kg, rat plasma, PO 1.22 mg eq./kg, read-out: AUC(0-∞)): 0.594 µM·h
- half-life (male, Sprague-Dawley, rat, po, 1.22 mg/kg, rat plasma, PO 1.22 mg eq./kg, read-out: Half-life (t½) (converted)): 2.23 h
- Cmax (male, Sprague-Dawley, rat, po, 1.22 mg/kg, rat plasma, PO 1.22 mg eq./kg, read-out: Observed Cmax): 109 nM
- AUC(0-inf) (male, Sprague-Dawley, rat, po, 10 mg/kg, rat plasma, PO 10.0 mg eq./kg, read-out: AUC(0-∞)): 11.4 µM·h
- half-life (male, Sprague-Dawley, rat, po, 10 mg/kg, rat plasma, PO 10.0 mg eq./kg, read-out: Half-life (t½) (converted)): 3.92 h
- Cmax (male, Sprague-Dawley, rat, po, 10 mg/kg, rat plasma, PO 10.0 mg eq./kg, read-out: Observed Cmax): 3700 nM
- AUC(0-inf) (male, Sprague-Dawley, rat, po, 10 mg/kg, rat, dose 10 mg/kg, single dose in solution (oral values of Table 1), read-out: AUC inf): 11.4 µM·h
- Cmax (male, Sprague-Dawley, rat, po, 10 mg/kg, rat, dose 10 mg/kg, single dose in solution, read-out: C max): 3700 nM
- AUC(0-inf) (male, Sprague-Dawley, rat, sc, 1 mg/kg, rat plasma, SC 1.0 mg eq./kg, read-out: AUC(0-∞)): 1.69 µM·h
- half-life (male, Sprague-Dawley, rat, sc, 1 mg/kg, rat plasma, SC 1.0 mg eq./kg, read-out: Half-life (t½) (converted)): 1.81 h
- Cmax (male, Sprague-Dawley, rat, sc, 1 mg/kg, rat plasma, SC 1.0 mg eq./kg, read-out: Observed Cmax): 985 nM
- AUC(0-inf) (male, Sprague-Dawley, rat, sc, 10 mg/kg, rat plasma, SC 10.0 mg eq./kg, read-out: AUC(0-∞)): 25.8 µM·h
- half-life (male, Sprague-Dawley, rat, sc, 10 mg/kg, rat plasma, SC 10.0 mg eq./kg, read-out: Half-life (t½) (converted)): 2.59 h
- Cmax (male, Sprague-Dawley, rat, sc, 10 mg/kg, rat plasma, SC 10.0 mg eq./kg, read-out: Observed Cmax): 6190 nM
- Tmax (male, Sprague-Dawley, subcutaneous, rat plasma, po and sc, all dose levels, read-out: Tmax after extravascular administration): 0.5 to 1 h
- Cmax/Cmin ratios (rat): > 100
- total systemic clearance, times higher than GFR (rat): ~ 13 fold
- AUCnorm (rat brain, IV 1.22 mg eq./kg): 39040 (nM hr/kg) /(kg/mg)
- Observed CmaxNorm (rat brain, IV 1.22 mg eq./kg): 9003 nM/ (mg/kg)
- AUCnorm (rat brain, PO 1.22 mg eq./kg): 17310 (nM hr/kg) /(kg/mg)
- Observed CmaxNorm (rat brain, PO 1.22 mg eq./kg): 1775 nM/ (mg/kg)
- AUCnorm (rat brain, PO 10.0 mg eq./kg): 25620 (nM hr/kg) /(kg/mg)
- Observed CmaxNorm (rat brain, PO 10.0 mg eq./kg): 2543 nM/ (mg/kg)
- AUCnorm (rat brain, SC 1.0 mg eq./kg): 52980 (nM hr/kg) /(kg/mg)
- Observed CmaxNorm (rat brain, SC 1.0 mg eq./kg): 10620 nM/ (mg/kg)
- AUCnorm (rat brain, SC 10.0 mg eq./kg): 44160 (nM hr/kg) /(kg/mg)
- Observed CmaxNorm (rat brain, SC 10.0 mg eq./kg): 7544 nM/ (mg/kg)
- AUC0-∞ increase, fold more than dose proportional [1]: 1.5 fold
- Cmax increase, fold more than dose proportional [1]: ~ 1.5 fold
- Cmax and AUC0-∞ increase relative to dose proportional (rat brain, sc dose increase from 1 to 10 mg/kg, slightly less than dose proportional): 0.7-0.8 fold
- AUCnorm (rat plasma, IV 1.22 mg eq./kg): 1342 (nM hr/kg) /(kg/mg)
- AUCnorm (rat plasma, PO 1.22 mg eq./kg): 486.9 (nM hr/kg) /(kg/mg)
- Observed CmaxNorm (rat plasma, PO 1.22 mg eq./kg): 89.07 nM/ (mg/kg)
- AUCnorm (rat plasma, PO 10.0 mg eq./kg): 1139 (nM hr/kg) /(kg/mg)
- Observed CmaxNorm (rat plasma, PO 10.0 mg eq./kg): 369.6 nM/ (mg/kg)
- AUCnorm (rat plasma, SC 1.0 mg eq./kg): 1686 (nM hr/kg) /(kg/mg)
- Observed CmaxNorm (rat plasma, SC 1.0 mg eq./kg): 985.0 nM/ (mg/kg)
- AUCnorm (rat plasma, SC 10.0 mg eq./kg): 2581 (nM hr/kg) /(kg/mg)
- Observed CmaxNorm (rat plasma, SC 10.0 mg eq./kg): 618.9 nM/ (mg/kg)
- AUC0-∞ increase, fold more than dose proportional [2]: 2.3 fold
- Cmax increase, fold more than dose proportional [2]: ~ 4 fold
- AUC0-∞ increase, fold more than dose proportional (rat plasma, sc dose increase from 1 to 10 mg/kg): 1.5 fold
- elimination half-life (rat, all dose routes and levels (plasma; b142 also brain)): < 4 h
- C max/ C min ratio (rat, dose 10 mg/kg): 123
- delay in Tmax for brain compared to plasma (rat, same dose level and route): 0.25 to 1.5 h
- Contribution of active transport to clearance (rodent (rat)): > 100%
- brain elimination half-lives after extravascular administrations (summary for rats and mice, rat): 2.28 – 3.8
